# Experimental data reported in US20220347085A1, “REPELLENT COMPOSITION AND USES” (Université Bourgogne, priority 2019, published 2022).
# Tested on: Drosophila melanogaster
# Assay: Test in a box (repellent effect), Drosophila melanogaster
# Type: in vivo
# Conditions: 1250 cm^3 box; for courtship and copulation in the box / survival of flies in the box: 24 hours
# Procedure: 2. Tests “in a Box” (Repellent Effect)
# The sensitivity of the drosophilae was evaluated over a period of between 0 minutes and 24 hours, according to the conditions (see results) in closed and transparent boxes of 1250 cm^3.
# An odor source, i.e. a composition comprising butyric acid or propionic acid in paraffin oil, was deposited on a filter paper at the base of a 50 mm petri dish. The petri dish is introduced into a test box and covered with a gauze Securimed M8202 sterile gauze pad) in order to prevent the flies from getting stuck on the oily odorous compound.
# The concentrations used were 2%, 6% or 20% propionic acid.
# A second Petri dish containing 5 to 6 grams of synthetic food used for breeding drosophilae in laboratories was placed in the test box, i.e. 6.5% maize flour, 6.5% (v/v) yeast extract, 1% (v/v) agar-agar, and 3% (v/v) of a 0.1% (v/v) antifungal solution (Tegosept (Apex)) in ethanol at 95%. This latter provides the water and/or the food which the flies needed during the test, and eliminated the possibility of an event due to dehydration of the individuals tested.
# Drosophila melanogaster or suzukii were then introduced by groups into the test box, and moved there freely over time. Their behavior in the presence of a composition as mentioned above was observed and photographed (Apple iPhone 6S).
compound,measurement,setting,value
CCC(=O)O [propionic acid],courtship and copulation in the box,2% in paraffin oil,court and copulate
same,survival of flies in the box,2% in paraffin oil,still alive after 24 hours
same,courtship and copulation in the box,6% in paraffin oil,court and copulate
same,survival of flies in the box,6% in paraffin oil,still alive after 24 hours
same,anesthesia at a distance in the box,20% in solvent,anesthetized in the test hour
same,repellent behavior (location of flies relative to odor source),20% in solvent,keep away from the filter paper
